Laboratory results: patent US20230141603A1, “BENZODIAZEPINE DERIVATIVES AS GABA A GAMMA1 PAM” (Hoffmann-La Roche Inc., priority 2021, published 2023)

Each compound was assayed against T1, h-GABAA α5β2γ1 (Homo sapiens, UniProt P31644+Q8N1C3) (assay: Radioligand binding assay, [3H]RO7239181 competition, HEK293F membranes).
T1 construct: expressed in transfected cells; host or cells: HEK293F cells (ThermoFisher R79007), membranes
T1 sequence (P31644 32-462): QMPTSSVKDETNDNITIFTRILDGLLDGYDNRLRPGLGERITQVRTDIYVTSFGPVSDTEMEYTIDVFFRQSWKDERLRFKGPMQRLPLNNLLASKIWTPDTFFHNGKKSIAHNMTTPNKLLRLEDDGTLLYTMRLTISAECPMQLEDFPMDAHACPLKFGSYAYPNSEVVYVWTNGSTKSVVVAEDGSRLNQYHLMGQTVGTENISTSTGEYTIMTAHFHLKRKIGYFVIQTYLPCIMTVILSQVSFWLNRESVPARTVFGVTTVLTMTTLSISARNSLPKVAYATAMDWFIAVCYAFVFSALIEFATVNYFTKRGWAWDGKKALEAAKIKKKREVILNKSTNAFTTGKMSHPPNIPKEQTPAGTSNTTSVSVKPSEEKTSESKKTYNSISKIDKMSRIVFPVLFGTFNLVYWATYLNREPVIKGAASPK
T1 sequence (P47870 25-512 partner limits assumed): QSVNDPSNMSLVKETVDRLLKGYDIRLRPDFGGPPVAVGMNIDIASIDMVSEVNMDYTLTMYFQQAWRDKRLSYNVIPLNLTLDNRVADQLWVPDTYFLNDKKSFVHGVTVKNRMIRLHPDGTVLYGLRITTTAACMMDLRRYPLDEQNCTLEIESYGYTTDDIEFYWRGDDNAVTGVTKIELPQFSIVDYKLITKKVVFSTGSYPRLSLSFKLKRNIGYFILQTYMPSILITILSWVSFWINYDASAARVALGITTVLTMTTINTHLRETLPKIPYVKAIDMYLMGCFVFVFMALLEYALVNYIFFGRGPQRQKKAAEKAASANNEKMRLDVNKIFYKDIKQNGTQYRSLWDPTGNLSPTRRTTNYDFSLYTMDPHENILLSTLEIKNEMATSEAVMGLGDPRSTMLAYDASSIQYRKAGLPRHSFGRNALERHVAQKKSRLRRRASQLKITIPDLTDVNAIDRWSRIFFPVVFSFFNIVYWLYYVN
T1 sequence (Q8N1C3 36-465): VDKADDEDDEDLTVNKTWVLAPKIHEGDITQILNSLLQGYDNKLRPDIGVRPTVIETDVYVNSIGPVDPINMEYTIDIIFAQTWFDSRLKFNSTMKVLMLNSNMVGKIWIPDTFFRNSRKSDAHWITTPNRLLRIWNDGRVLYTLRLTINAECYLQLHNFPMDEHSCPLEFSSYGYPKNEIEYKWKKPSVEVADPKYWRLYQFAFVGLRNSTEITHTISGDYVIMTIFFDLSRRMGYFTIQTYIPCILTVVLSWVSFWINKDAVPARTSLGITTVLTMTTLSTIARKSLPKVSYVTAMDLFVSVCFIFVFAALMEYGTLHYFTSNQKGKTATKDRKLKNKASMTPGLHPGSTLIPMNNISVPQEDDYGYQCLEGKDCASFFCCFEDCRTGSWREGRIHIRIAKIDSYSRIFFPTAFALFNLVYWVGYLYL
Method: The affinity of compounds at GABAA γ1 subunit-containing receptors was measured by competition for [^3H]RO7239181 (67.3 Ci/mmol; Roche) binding to membranes from HEK293F cells (ThermoFisher R79007) expressing human (transiently transfected) receptors of composition […], α2β2γ1, α1β2γ1. For better protein expression of the α2 subunit-containing receptors, the 28 amino acid long signal peptide (Met1 to Ala28) of the human GABAA α2 subunit was substituted by the 31 amino acid long signal peptide (Met1 to Ser31) of human GABAA α5 subunit.
Harvested pellets from HEK293F cells expressing the different GABAA receptor subtypes were resuspended in Mannitol Buffer pH 7.2-7.4 (Mannitol 0.29M, Triethylamine 10 mM, Acetic acid 10 mM, EDTA 1 mM plus protease inhibitors (20 tablets Complete, Roche Diagnostics Cat. No. 05 056 489 001 per liter)), washed two times and then resuspended at 1:10 to 1:15 dilution in the same buffer. Cell disruption was performed by stirring the suspension in a Parr vessel #4637 at 435 psi for 15 minutes, and then the suspensions were centrifuged at 1000×g for 15 minutes at 4° C. (Beckman Avanti J-HC; rotor JS-4.2). The supernatant (S1) was transferred in a 21 Schott flask and the pellet (P1) was resuspended with Mannitol Buffer up to 175 ml. The resuspended pellet was transferred into a 250 ml Corning centrifugal beaker and centrifuged at 1500×g for 10 minutes at 4° C. (Beckman Avanti J-HC; rotor JS-4.2). The supernatant (S1) was then transferred in the 21 Schott flask and the pellet was discarded. The supernatants (S1) were centrifuged in 500 ml Beckman polypropylene centrifugal beaker at 15′000×g for 30 minutes at 4° C. (Beckman Avanti J-20 XP; rotor JLA-10.500). The pellet (P2) was resuspended with Mannitol Buffer 1:1 and frozen at −80° C. The supernatant (S2) was centrifuged in 100 ml Beckman polypropylene centrifugal tubes at 48000×g for 50 minutes at 4° C. (Beckman Avanti J-20 XP; rotor JA-18). The supernatant (S3) was discarded and the pellet (P3) was resuspended with 1:1 Mannitol Buffer. The P2 and P3 protein concentration was determined with the BIORAD Standard assay method with bovine serum albumin as standard and measured on the NANO-Drop 1000. The membrane suspension was aliquots (500 μl per tube) and stored at −80° C. until required. Membrane homogenates were resuspended and polytronised (Polytron PT1200E Kinematica AG) in Potassium Phosphate 10 mM, KCl 100 mM binding buffer at pH 7.4 to a final assay concentration determined with a previous experiment.
Radioligand binding assays were carried out in a volume of 200 μL (96-well plates) which contained 100 μL of cell membranes, [^3H]RO7239181 at a concentration of 1.5 nM (α5β2γ1) or 20-30 nM (α1β2γ1, α2β2γ1) and the test compound in the range of [0.3-10000]×10^−9 M. Nonspecific binding was defined by 10×10^−6 (α5β2γ1) and 30×10^−6 M RO7235136 and typically represented less than 5% (α5β2γ1) and less than 20% (α1β2γ1, α2β2γ1) of the total binding. Assays were incubated to equilibrium for 1 hour at 4° C. and then, membranes were filtered onto unifilter (96-well white microplate with bonded GF/C filters preincubated 20-50 minutes in 0.3% Polyethylenimine) with a Filtermate 196 harvester (Packard BioScience) and washed 4 times with cold Potassium Phosphate 10 mM pH 7.4, KCl 100 mM binding buffer. After drying, filter-retained radioactivity was detected by liquid scintillation counting. Ki values were calculated using Excel-Fit (Microsoft) and are the means of two determinations.

Row | SMILES | Ki [nM]
1 | Fc1cccc(F)c1C1=NCc2nncn2-c2ccc(C(F)F)c(Cl)c21 [Example 23, 7-chloro-8-(difluoromethyl)-6-(2,6-difluorophenyl)-4H-[1,2,4]triazolo[4,3-a][1,4]benzodiazepine] | 5.8
2 | Cc1nnc2n1-c1ccc(Br)c(Cl)c1C(c1ncccc1F)=NC2 [Example 24, 8-bromo-7-chloro-6-(3-fluoro-2-pyridyl)-1-methyl-4H-[1,2,4]triazolo[4,3-a][1,4]benzodiazepine] | 3.5
3 | Cc1nnc2n1-c1ccc(C(F)F)c(Cl)c1C(c1c(F)cccc1F)=NC2 [Example 25, 7-chloro-8-(difluoromethyl)-6-(2,6-difluorophenyl)-1-methyl-4H-[1,2,4]triazolo[4,3-a][1,4]benzodiazepine] | 4.4
4 | O=c1[nH]nc2n1-c1ccc(Br)c(Cl)c1C(c1ccccc1F)=NC2 [Example 26, 8-bromo-7-chloro-6-(2-fluorophenyl)-2,4-dihydro-[1,2,4]triazolo[4,3-a][1,4]benzodiazepin-1-one] | 2.3
5 | Fc1ccccc1C1=NCc2nnc(-c3cccnn3)n2-c2ccc(C(F)(F)F)c(Cl)c21 [Example 27, 7-chloro-6-(2-fluorophenyl)-1-pyridazin-3-yl-8-(trifluoromethyl)-4H-[1,2,4]triazolo[4,3-a][1,4]benzodiazepine] | 6.3
6 | Cn1cc(-c2nnc3n2-c2ccc(Cl)c(Cl)c2C(c2c(F)cccc2F)=NC3)cn1 [Example 28, 7,8-dichloro-6-(2,6-difluorophenyl)-1-(1-methylpyrazol-4-yl)-4H-[1,2,4]triazolo[4,3-a][1,4]benzodiazepine] | 1.4
7 | Fc1cccnc1C1=NCc2nncn2-c2ccc(Br)c(Cl)c21 [Example 29, 8-bromo-7-chloro-6-(3-fluoro-2-pyridyl)-4H-[1,2,4]triazolo[4,3-a][1,4]benzodiazepine] | 7.2
8 | OCc1nnc2n1-c1ccc(Br)c(Cl)c1C(c1c(F)cccc1F)=NC2 [Example 33, [8-bromo-7-chloro-6-(2,6-difluorophenyl)-4H-[1,2,4]triazolo[4,3-a][1,4]benzodiazepin-1-yl]methanol] | 1.5
9 | Fc1cccc(F)c1C1=NCc2nncn2-c2ccc(I)c(Cl)c21 [Example 34, 7-chloro-6-(2,6-difluorophenyl)-8-iodo-4H-[1,2,4]triazolo[4,3-a][1,4]benzodiazepine] | 0.3
10 | Cl.NCc1nnc2n1-c1ccc(Br)c(Cl)c1C(c1c(F)cccc1F)=NC2 [Example 36, [8-bromo-7-chloro-6-(2,6-difluorophenyl)-4H-[1,2,4]triazolo[4,3-a][1,4]benzodiazepin-1-yl]methanamine hydrochloride] | 1.8
11 | Fc1cccc(F)c1C1=NCc2nncn2-c2ccc(C(F)(F)F)c(Cl)c21 [Example 37, 7-chloro-6-(2,6-difluorophenyl)-8-(trifluoromethyl)-4H-[1,2,4]triazolo[4,3-a][1,4]benzodiazepine] | 2.1
12 | Fc1cccc(F)c1C1=NCc2nnc(-c3cccnn3)n2-c2ccc(C(F)(F)F)c(Cl)c21 [Example 38, 7-chloro-6-(2,6-difluorophenyl)-1-pyridazin-3-yl-8-(trifluoromethyl)-4H-[1,2,4]triazolo[4,3-a][1,4]benzodiazepine] | 1.9
13 | Fc1cccc(F)c1C1=NCc2nnc(-c3cccnn3)n2-c2ccc(I)c(Cl)c21 [Example 39, 7-chloro-6-(2,6-difluorophenyl)-8-iodo-1-pyridazin-3-yl-4H-[1,2,4]triazolo[4,3-a][1,4]benzodiazepine] | 0.8
14 | Cc1nnc2n1-c1ccc(C(F)(F)F)c(Cl)c1C(c1c(F)cccc1F)=NC2 [Example 40, 7-chloro-6-(2,6-difluorophenyl)-1-methyl-8-(trifluoromethyl)-4H-[1,2,4]triazolo[4,3-a][1,4]benzodiazepine] | 1.9
15 | Cc1nnc2n1-c1ccc(I)c(Cl)c1C(c1c(F)cccc1F)=NC2 [Example 41, 7-chloro-6-(2,6-difluorophenyl)-8-iodo-1-methyl-4H-[1,2,4]triazolo[4,3-a][1,4]benzodiazepine] | 0.8
16 | Fc1cccc(F)c1C1=NCc2nnc(-c3cccnn3)n2-c2ccc(Br)c(Br)c21 [Example 42, 7,8-dibromo-6-(2,6-difluorophenyl)-1-pyridazin-3-yl-4H-[1,2,4]triazolo[4,3-a][1,4]benzodiazepine] | 0.9
17 | Fc1cccc(F)c1C1=NCc2nnc(-c3ccncn3)n2-c2ccc(Br)c(Br)c21 [Example 43, 7,8-dibromo-6-(2,6-difluorophenyl)-1-pyrimidin-4-yl-4H-[1,2,4]triazolo[4,3-a][1,4]benzodiazepine] | 1.4
18 | Clc1cccnc1C1=NCc2nnc(-c3ccncn3)n2-c2ccc(Br)c(Cl)c21 [Example 44, 8-bromo-7-chloro-6-(3-chloro-2-pyridyl)-1-pyrimidin-4-yl-4H-[1,2,4]triazolo[4,3-a][1,4]benzodiazepine] | 1.4
19 | Fc1cccnc1C1=NCc2nnc(-c3cccnn3)n2-c2ccc(Br)c(Cl)c21 [Example 45, 8-bromo-7-chloro-6-(3-fluoro-2-pyridyl)-1-pyridazin-3-yl-4H-[1,2,4]triazolo[4,3-a][1,4]benzodiazepine] | 3
20 | Fc1cccnc1C1=NCc2nnc(-c3ccncn3)n2-c2ccc(Br)c(Cl)c21 [Example 46, 8-bromo-7-chloro-6-(3-fluoro-2-pyridyl)-1-pyrimidin-4-yl-4H-[1,2,4]triazolo[4,3-a][1,4]benzodiazepine] | 3.9
21 | Clc1cccnc1C1=NCc2nnc(-c3cccnn3)n2-c2ccc(Br)c(Cl)c21 [Example 47, 8-bromo-7-chloro-6-(3-chloro-2-pyridyl)-1-pyridazin-3-yl-4H-[1,2,4]triazolo[4,3-a][1,4]benzodiazepine] | 1.3
